Where a name gives a salt, the structure may show the parent alone.
What was measured:
Format in all cases: physicochemical
[1] = Interconversion studies of Form 1 and Form 2 stirred in solvents; details: isopropanol (50° C., 7 days), acetone (50° C., 3 days), acetone/water 9/1 v/v (50° C., 1 day; room temperature, 1 day)
Experimental: In interconversion studies, equal amounts of Form 1 and Form 2 were added in various solvents and stirred at various temperatures for several days.

[2] = Solid-state chemical and physical stability on storage
[3] = Dynamic vapor sorption (DVS) / hygroscopicity

Relative stability of crystalline forms (form obtained from equal amounts of Form 1 and Form 2) [1]: more stable crystalline form | Time chemically and physically stable in the solid form ([2]; 40° C./75% RH): at least 10 days | Time chemically and physically stable in the solid form ([2]; 60° C.): at least 10 days | Time chemically and physically stable ([2]; ambient temperature and humidity): at least 12 months | Hygroscopicity [3]: slightly hygroscopic | Form change after DVS analysis ([3]; after DVS analysis): No form change | DVS reversable total mass change ([3]; between about 0% to about 80% relative humidity (RH) at 25° C.): about 0.2 wt. % | DVS reversable total mass change ([3]; between about 0% to about 90% relative humidity (RH) at 25° C.): about 0.3 wt. %
SMILES: [2H]C([2H])([2H])CC(=O)c1cnc(NC(=O)C2CC2)cc1Nc1cccc(-c2ncn(C([2H])([2H])[2H])n2)c1OC [Form 1, N-(4-((2-methoxy-3-(1-(methyl-d3)-1H-1,2,4-triazol-3-yl)phenyl)amino)-5-(propanoyl-3,3,3-d3)pyridin-2-yl) cyclopropanecarboxamide hydrochloride]

— US20260209205A1, “CRYSTALLINE FORMS OF A TYK2 INHIBITOR AND USES THEREOF” (Alumis Inc., priority 2022, published 2026)
